Structures can show the parent of a compound that is named as a salt.
Tests used:
[1] = molecular target: T1, V1 Recepter (rat liver plasma membrane preparations) (Rattus norvegicus, UniProt P30560); assay: V1 Recepter binding assay; details: [3H]-Arg-vasopressin 2×10^-10 M, 37° C., 10 minutes, pH 8.0, rat liver plasma membrane
T1 construct: rat liver plasma membrane preparations; from tissue; host or cells: rat liver plasma membranes
How it was run: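 Rat liver plasma membranes incubated with [3H]-Arg-vasopressin (2×10^-10 M) and compound (10^-8 to 10^-4 M) for 10 min at 37° C in Tris-HCl pH 8.0 with MgCl2, EDTA, BSA. Bound label separated by glass-fibre filtration, scintillation counted; nonspecific binding with 10^-6 M vasopressin; IC50 reported.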

[2] = molecular target: T2, V2 Recepter (rat kidney plasma membrane preparations) (Rattus norvegicus, UniProt Q00788); assay: V2 Recepter binding assay; details: [3H]-Arg-vasopressin 4×10^-10 M, 4° C., pH 8.0, rat kidney plasma membrane
T2 construct: rat kidney plasma membrane preparations; from tissue; host or cells: rat kidney plasma membranes
How it was run: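 Rat kidney plasma membranes incubated with [^3H]-Arg-vasopressin (4×10^-10 M) and test compound (10^-10 to 10^-5 M) for 3 h at 4 °C in 100 mM Tris-HCl pH 8.0 with 5 mM MgCl2, 1 mM EDTA, 0.1% BSA. Bound label by filtration and scintillation counting; nonspecific binding with 10^-6 M vasopressin; IC50 reported.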

[3] = molecular target: T3, Oxytocin receptor (uterin muscle membrane preparation) (Rattus norvegicus, UniProt P70536); assay: Oxytocin receptor binding assay; details: [3H]-oxytocin 10^-9 M, 25°, one hour, pH 8.0, uterin muscle membrane, DES-treated
T3 construct: was homogenized, which was used as a membrane; from tissue; host or cells: uterine muscle membranes from diethylstilbestrol-treated animals
T3 sequence (P70536 1-388): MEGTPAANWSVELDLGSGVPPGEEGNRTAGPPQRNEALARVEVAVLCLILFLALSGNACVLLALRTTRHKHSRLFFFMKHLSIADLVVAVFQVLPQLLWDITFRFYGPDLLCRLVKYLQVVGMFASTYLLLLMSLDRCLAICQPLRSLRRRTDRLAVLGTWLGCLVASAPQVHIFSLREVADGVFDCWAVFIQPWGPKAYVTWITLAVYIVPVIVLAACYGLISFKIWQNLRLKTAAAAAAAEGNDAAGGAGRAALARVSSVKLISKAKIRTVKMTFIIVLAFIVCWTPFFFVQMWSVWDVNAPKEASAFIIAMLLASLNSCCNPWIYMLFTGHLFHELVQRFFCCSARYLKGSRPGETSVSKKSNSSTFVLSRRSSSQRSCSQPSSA
How it was run: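 Rat uterine membranes (0.2 mg; DES-primed day before) incubated 1 h at 25° with [3H]-oxytocin (10^-9 M) and compound (10^-9 to 10^-5 M) in 100 mM Tris-HCl pH 8.0, 5 mM MgCl2, 1 mM EDTA, 0.1% BSA. Filter-bound radioactivity counted; nonspecific with 5×10^-6 M oxytocin; IC50 reported.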

T2 sequence (Q00788 whole entry): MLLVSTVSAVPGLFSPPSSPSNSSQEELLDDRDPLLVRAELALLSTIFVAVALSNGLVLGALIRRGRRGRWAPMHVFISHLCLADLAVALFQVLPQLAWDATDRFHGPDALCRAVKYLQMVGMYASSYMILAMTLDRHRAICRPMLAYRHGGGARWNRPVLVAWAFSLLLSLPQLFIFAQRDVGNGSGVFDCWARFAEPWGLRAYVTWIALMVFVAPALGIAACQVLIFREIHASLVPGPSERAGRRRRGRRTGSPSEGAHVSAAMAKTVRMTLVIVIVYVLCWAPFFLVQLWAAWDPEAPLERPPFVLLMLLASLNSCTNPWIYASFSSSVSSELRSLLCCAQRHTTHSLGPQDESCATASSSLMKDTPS
T1 sequence (P30560 whole entry): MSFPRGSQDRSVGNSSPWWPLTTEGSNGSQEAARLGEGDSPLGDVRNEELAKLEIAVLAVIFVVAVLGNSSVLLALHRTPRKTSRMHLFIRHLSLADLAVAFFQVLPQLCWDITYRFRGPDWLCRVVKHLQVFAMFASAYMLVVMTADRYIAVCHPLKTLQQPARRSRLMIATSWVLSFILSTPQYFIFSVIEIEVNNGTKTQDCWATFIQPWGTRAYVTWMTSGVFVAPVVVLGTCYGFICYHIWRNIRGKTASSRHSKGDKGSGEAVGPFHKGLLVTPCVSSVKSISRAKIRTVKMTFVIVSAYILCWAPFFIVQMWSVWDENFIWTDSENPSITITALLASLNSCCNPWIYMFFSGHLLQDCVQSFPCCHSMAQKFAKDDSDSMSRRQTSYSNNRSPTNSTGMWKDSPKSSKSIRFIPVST

| Compound | IC50 [1] [nM] | IC50 [2] [nM] | IC50 [3] [nM] |
| --- | --- | --- | --- |
| COc1cc(NC(=O)c2ccccc2Cl)ccc1C(=O)N1CCCC(OCCSc2ccncc2)c2cc(Cl)ccc21 (stereo not drawn) [Example 139, 5-[2-(4-Pyridyl)thioethoxy]-7-chloro-1-[2-methoxy-4-(2-chlorobenzoylamino)benzoyl]-2,3,4,5-tetrahydro-1H-benzoazepine] | 120 | 12 | 1000 |
| COc1cc(NC(=O)c2ccccc2Cl)ccc1C(=O)N1CCCC(OCCNC2CC2)c2cc(Cl)ccc21 (stereo not drawn) [Example 138, 5-(2-Cyclopropylaminoethoxy)-7-chloro-1-[2-methoxy-4-(2-chlorobenzoylamino)benzoyl]-2,3,4,5-tetrahydro-1H-benzoazepine.cndot.hydrochloride] | 5 | 3 | 233 |
| COc1cc(NC(=O)c2ccccc2Cl)ccc1C(=O)N1CCCC(CC(=O)NCc2ccccn2)c2cc(Cl)ccc21 (stereo not drawn) [Example 126, 5-(2-Pyridylmethyl)aminocarbonylmethyl-7-chlor-[2-methoxy-4-(2-chlorobenzoylamino)benzoyl]-2,3,4,5-tetrahydro-1H-benzoazepine] | 24 | 5 | 73 |
| COc1cc(NC(=O)c2ccccc2Cl)ccc1C(=O)N1CCCC(OCCSc2nccc(C)n2)c2cc(Cl)ccc21 (stereo not drawn) [Example 140] | 280 | 46 | 4290 |
| CCN(CC)CCOC1CCCN(C(=O)c2ccc(N3Cc4ccccc4C3=O)cc2)c2ccc(Cl)cc21 (stereo not drawn) [Example 131, 5-(2-Diethylaminoethoxy)-7-chloro-1-[4-(1-oxoisoindolin-2-yl)benzoyl]-2,3,4,5-tetrahydro-1H-bezoazepine] | 32 | 170 | 1790 |
| COc1cc(NC(=O)c2ccccc2Cl)ccc1C(=O)N1CCCC(CC(=O)NCc2cnc(C)cn2)c2cc(Cl)ccc21 (stereo not drawn) [Example 134, 5-(5-Methyl-2-pyrazinyl)methylaminocarbonylmethyl-7-chloro-1-[2-methoxy-4-(2-chlorobenzoylamino)benzoyl]-2,3,4,5-tetrahydro-1H-benzoazepine] | 12 | 4 | 96 |
| CCN1CCN(C(=O)COC2CCCN(C(=O)c3ccc(N4CCc5ccccc5C4=O)cc3)c3ccc(Cl)cc32)CC1 (stereo not drawn) [Example 128, 5-(4-Ethyl-1-piperazinyl)carbonylmethoxy-7-chloro-1-[4-(1-oxo-1,2,3,4-tetrahydroisoquinolin-2-yl)benzoyl]-2,3,4,5-tetrahydro-1H-benzoazepine] | 14 | 13 | 95 |
| COc1cc(NC(=O)c2ccccc2Cl)ccc1C(=O)N1CCCC(CC(=O)N2CCN(CC#N)CC2)c2cc(Cl)ccc21 (stereo not drawn) [Example 80, 5-(4-Cyanomethyl-1-piperazinyl)carbonylmethyl 7-chloro-1-[2-methoxy-4-(2-chlorobenzoylamino)benzoyl]-2,3,4,5-tetrahydro-1H-benzoazepine] | 16 | 9 | 84 |

Results, then the molecule that gave them:

| IC50 [1] [nM] | IC50 [2] [nM] | IC50 [3] [nM] | Compound |
| --- | --- | --- | --- |
| 16 | 7.3 | 47 | COc1cc(NC(=O)c2ccccc2Cl)ccc1C(=O)N1CCCC(CC(=O)N2CCN(CC(=O)N3CCCC3)CC2)c2cc(Cl)ccc21 (stereo not drawn) [Example 157, 5-{4-[(1-Pyrrolidynyl)carbonylmethyl]-1-piperazinyl}carbonylmethyl-7-chloro-1-[2-methoxy-4-(2-chlorobenzoylamino)benzoyl]-2,3,4,5-tetrahydro-1H-benzoazepine] |
| 5 | 3.9 | 133 | COc1cc(NC(=O)c2ccccc2Cl)ccc1C(=O)N1CCCC(OCCNS(C)(=O)=O)c2cc(Cl)ccc21 (stereo not drawn) [Example 172, 5-(2-Methanesulfonylaminoethoxy)-7-chloro-1-[2-methoxy-4-(2-chlorobenzoylamino)benzoyl]-2,3,4,5-tetrahydro-1H-benzoazepine] |
| 5.5 | 3 | 70 | COc1cc(NC(=O)c2ccccc2Cl)ccc1C(=O)N1CCCC(CC(=O)NCCN2CCCCC2)c2cc(Cl)ccc21 (stereo not drawn) [Example 156, 5-[2-(1-Piperidinyl)ethyl]aminocarbonylmethyl-7-chloro-1-[2-methoxy-4-(2-chlorobenzoylamino)benzoyl]-2,3,4,5-tetrahydro-1H-benzoazepine] |
| 54 | 10 | 154 | COc1cc(NC(=O)c2ccccc2Cl)ccc1C(=O)N1CCCC(CCN2CCN(S(C)(=O)=O)CC2)c2cc(Cl)ccc21 (stereo not drawn) [Example 146, 5-[2-(4-Methanesulfonyl-1-piperazinyl)ethyl]-7-chloro-1-[2-methoxy-4-(2-chlorobenzoylamino)-benzoyl]-2,3,4,5-tetrahydro-1H-benzoazepine] |
| 7 | 1.9 | 55 | COc1cc(NC(=O)c2ccccc2Cl)ccc1C(=O)N1CCCC(CC(=O)NCCC2CCCN2C)c2cc(Cl)ccc21 (stereo not drawn) [Example 155, 5-[2-(1-Methyl-2-pyrrolidinyl)ethyl]-aminocarbonylmethyl-7-chloro-1-[2-methoxy-4-(2-chlorobenzoylamino)benzoyl]-2,3,4,5-tetrahydro-1H-benzoazepine] |
| 54 | 5 | 225 | CNC(=O)N1CCN(CCC2CCCN(C(=O)c3ccc(NC(=O)c4ccccc4Cl)cc3OC)c3ccc(Cl)cc32)CC1 (stereo not drawn) [Example 148, 5-[2-(4-Methylaminocarbonyl-1-piperazinyl)ethyl]-7-chloro-1-[2-methoxy-4-(2-chlorobenzoylamino)benzoyl]-2,3,4,5-tetrahydro-1H-benzoazepine] |
| 21 | 12 | 197 | COc1cc(NC(=O)c2ccccc2Cl)ccc1C(=O)N1CCCC(CC(=O)NCCc2cccn2C)c2cc(Cl)ccc21 (stereo not drawn) [Example 154, 5-[2-(1-Methyl-2-pyrrolyl)ethyl]aminocarbonyl-methyl-7-chloro-1-[2-methoxy-4-(2-chlorobenzoylamino)benzoyl]-2,3,4,5-tetrahydro-1H-benzoazepine] |
| 56 | 7.6 | 193 | COc1cc(NC(=O)c2ccccc2Cl)ccc1C(=O)N1CCCC(OCCSc2ncc[nH]2)c2cc(Cl)ccc21 (stereo not drawn) [Example 141, 5-[2-(2-Imidazolyl)thioethoxy]-7-chloro-1-[2-methoxy-4-(2-chlorobenzoylamino)benzoyl]-2,3,4,5-tetrahydro-1H-benzoazepine] |
| 55 | 9.9 | 354 | COc1cc(NC(=O)c2ccccc2Cl)ccc1C(=O)N1CCCC(OCC[S+]([O-])c2ncc[nH]2)c2cc(Cl)ccc21 (stereo not drawn) [Example 144, 5-[2-(2-Imidazolyl)sulfinylethoxy]-7-chloro-1-[2-methoxy-4-(2-chlorobenzoylamino)benzoyl] 2,3,4,5-tetrahydro-1H-benzoazepine] |
| 41 | 61 | 1640 | COc1cc(NC(=O)c2ccccc2Br)ccc1C(=O)N1CCCC(OCCNS(=O)(=O)C(F)(F)F)c2cc(Cl)ccc21 (stereo not drawn) [Example 152, 5-(2-Trifluoromethylsulfonylaminoethoxy)-7-chloro-1-[2-methoxy-4-(2-bromobenzoylamino)benzoyl]-2,3,4,5-tetrahydro-1H-benzoazepine] |
| 16 | 9 | 471 | COc1cc(NC(=O)c2ccccc2Cl)ccc1C(=O)N1CCCC(OCCNCc2ccccc2)c2cc(Cl)ccc21 (stereo not drawn) [Example 150, 5-(2-Benzylaminoethoxy)-7-chloro-1-[2-methoxy-4-(2-chlorobenzoylamino)benzoyl]-2,3,4,5-tetrahydro-1H-benzoazepine] |
